Measurements as given in patent US20240350460A1, “APPLICATION OF HYDRAZIDE COMPOUND IN TUMOR TREATMENT” (NANJING SHIJIANG MEDICINE TECHNOLOGY CO., LTD, priority 2021, published 2024).

Columns and labels:
Type in all cases: cell-based
CFPAC-1 = assay: Cell viability (Promega CellTiter-Glo), inhibitory effect on tumor cell line; settings: CFPAC-1, human pancreatic cancer cell; insensitive group; 3-4 days of culture; n=3
Procedure: (§1) Cell viability was detected using the Promega CellTiter-Glo kit, cell viability was determined by directly measuring intracellular ATP content. […] The name, source and culture conditions of each tumor cell line were as follows: Cell line CFPAC-1 (ATCC, No. CRL-1918) was cultured in 10% fetal bovine serum-containing IMDM medium (+P/S).

GB-1 = assay: as above; settings: GB-1, human glioblastoma cell; insensitive group; 3-4 days of culture; n=3
[1] = tested on: control NCI-H82 cell (NCI-H82 (Con)); assay: Cell viability (Promega CellTiter-Glo) on control NCI-H82 cell; settings: Homo sapiens; NCI-H82 transfected with empty virus vector without NNMT gene; n=3
Description: (§2) The NNMT protein-overexpressing NCI-H82 cell (NCI-H82 (ov-NNMT)) was obtained by inserting the NNMT gene into NCI-H82 cell using a viral vector. The control NCI-H82 cell (NCI-H82 (Con)) was obtained by transfecting NCI-H82 cell with empty virus vector without carrying NNMT gene.
(§3) The expressing level of NNMT protein in control NCI-H82 cell (NCI-H82 (Con)) and NNMT protein-overexpressing NCI-H82 cell (NCI-H82 (ov-NNMT)) was detected using Western Blot assay (as shown in FIG. 7), it could be seen from FIG. 7 that the NNMT protein in NCI-H82 (ov-NNMT) cell was overexpressed compared with the expression level of NNMT protein in NCI-H82 (Con) cell.

SF126 = assay: Cell viability (Promega CellTiter-Glo), inhibitory effect on tumor cell line; settings: SF-126; SF126, human glioblastoma multiforme cell; insensitive group; 3-4 days of culture; n=3
Procedure: as §1, with “SF126 (JCRB,” for “CFPAC-1 (ATCC,”, “IFO50286)” for “CRL-1918)”, “EMEM” for “IMDM”

SW48 = assay: as above; settings: SW48, human colon adenocarcinoma cell; sensitive group; 3-4 days of culture; n=3
Procedure: as §1, with “SW48” for “CFPAC-1”, “CCL-231)” for “CRL-1918)”, “Leibovitz's L-15” for “IMDM”

MDA-MB-453 = assay: as above; settings: Homo sapiens; MDA-MB-453, breast cancer cell; sensitive group; 3-4 days of culture; n=3
Procedure: as §1, with “MDA-MB-453” for “CFPAC-1”, “HTB-131)” for “CRL-1918)”, “Leibovitz's L-15” for “IMDM”

NCI-H82 = assay: as above; settings: NCI-H82, human small cell lung cancer cell; sensitive group; 3-4 days of culture; n=3
Procedure: as §1, with “[…] HTB-175)” for “Cell line CFPAC-1 (ATCC, No. CRL-1918)”, “RPMI1640” for “IMDM”

G-401 = assay: as above; settings: G-401, human renal carcinoma Wilms cell; sensitive group; 3-4 days of culture; n=3
Procedure: as §1, with “G-401” for “CFPAC-1”, “CRL-1441)” for “CRL-1918)”, “McCoy's 5a” for “IMDM”

WSU-DLCL2 = assay: as above; settings: WSUDLCL2; WSU-DLCL2, human diffuse large B-cell lymphoma; sensitive group; 3-4 days of culture; n=3
Procedure: as §1, with “WSU-DLCL2 (DSMZ,” for “CFPAC-1 (ATCC,”, “ACC-575)” for “CRL-1918)”, “RPMI1640” for “IMDM”

[2] = tested on: NNMT protein-overexpressing NCI-H82 cell (NCI-H82 (ov-NNMT)); assay: Cell viability (Promega CellTiter-Glo) on NNMT protein-overexpressing NCI-H82 cell; settings: Homo sapiens; NCI-H82 overexpressing NNMT protein (NNMT gene inserted by viral vector); n=3
Description: as §2, §3

786-O = assay: Cell viability (Promega CellTiter-Glo), inhibitory effect on tumor cell line; settings: Homo sapiens, 786-0, clear cell renal cell adenocarcinoma cell, insensitive group, 3-4 days of culture, n=3
Procedure: as §1, with “786-O” for “CFPAC-1”, “CRL-1932)” for “CRL-1918)”, “RPMI1640” for “IMDM”

Structure (SMILES) | IC50 (CFPAC-1) [µM] | IC50 (GB-1) [µM] | IC50 [1] [µM] | IC50 (SF126) [µM] | IC50 (SW48) [µM] | IC50 (MDA-MB-453) [µM] | IC50 (NCI-H82) [µM] | IC50 (G-401) [µM] | IC50 (WSU-DLCL2) [µM] | IC50 [2] [µM] | IC50 (786-O) [µM]
O=C1OCCN1/N=C/c1ccc([N+](=O)[O-])o1 [Furazolidone, furazolidone] | > 50 | 38.4 | 8.22 | > 50 | 8.23 | 7.73 | 8.31 | 5.77 | 9.04 | 18.5 | 
O=C(N/N=C/c1ccc([N+](=O)[O-])o1)c1ccc(O)cc1 [Nifuroxazide, nifuroxazide] | > 50 | 20 | 2.41 | 16.4 | 4.05 | 2.78 | 2.48 | 3.22 | 4.22 | 5.01 | > 50
